Consider 15 compounds from ChEMBL document CHEMBL5360556, “An overview of compound properties, multiparameter optimization, and computational drug design methods for PARP-1 inhibitor drugs” (Eur J Med Chem, 2023).

Series [1] has as its target T1, Poly [ADP-ribose] polymerase 1 (Homo sapiens, UniProt P09874). Kind of series: Inhibition of PARP1 (unknown origin) incubated for 60 mins by absorbance based analysis.
For series [2], the target named is T1, Poly [ADP-ribose] polymerase 1. Kind of series: Inhibition of PARP1 (unknown origin) incubated for 60 mins by ELISA assay. In general terms: ELISA stands for enzyme-linked immunosorbent assay.
For series [3] the target is unchanged. The series is described as follows: Inhibition of PARP1 (unknown origin).
The target is the same in series [4]. The series is described as follows: Inhibition of PARP1 CD (unknown origin) by colorimetric assay.
Series [5] shares this target. Kind of series: Inhibition of PARP1 (unknown origin) using Streptavidin-HRP as substrate incubated for 1 hr by absorbance based analysis.
Series [6] is described as follows: Dissociation constant, pKa of the compound under basic condition. Type of series: physicochemical.
Series [7] in a line: Dissociation constant, pKa of the compound under acidic condition. Type of series: physicochemical.
The nature of series [8]: Lipophilicity, logP of compound. As to conditions: octanol/water. Type of series: physicochemical.
The nature of series [9]: Lipophilicity, logD of compound at pH 7.4. As to conditions: buffer. Type of series: physicochemical.
The nature of series [10]: Solubility of the compound. Type of series: physicochemical.
The target in series [11] is Voltage-gated inwardly rectifying potassium channel KCNH2 (Homo sapiens, UniProt Q12809). The series is described as follows: Inhibition of hERG. Type of series: toxicity. (In general: Block of hERG is tested as a sign of cardiac risk.)

Converted amounts (≈) assume the structure as drawn.

T1 sequence (P09874 whole entry): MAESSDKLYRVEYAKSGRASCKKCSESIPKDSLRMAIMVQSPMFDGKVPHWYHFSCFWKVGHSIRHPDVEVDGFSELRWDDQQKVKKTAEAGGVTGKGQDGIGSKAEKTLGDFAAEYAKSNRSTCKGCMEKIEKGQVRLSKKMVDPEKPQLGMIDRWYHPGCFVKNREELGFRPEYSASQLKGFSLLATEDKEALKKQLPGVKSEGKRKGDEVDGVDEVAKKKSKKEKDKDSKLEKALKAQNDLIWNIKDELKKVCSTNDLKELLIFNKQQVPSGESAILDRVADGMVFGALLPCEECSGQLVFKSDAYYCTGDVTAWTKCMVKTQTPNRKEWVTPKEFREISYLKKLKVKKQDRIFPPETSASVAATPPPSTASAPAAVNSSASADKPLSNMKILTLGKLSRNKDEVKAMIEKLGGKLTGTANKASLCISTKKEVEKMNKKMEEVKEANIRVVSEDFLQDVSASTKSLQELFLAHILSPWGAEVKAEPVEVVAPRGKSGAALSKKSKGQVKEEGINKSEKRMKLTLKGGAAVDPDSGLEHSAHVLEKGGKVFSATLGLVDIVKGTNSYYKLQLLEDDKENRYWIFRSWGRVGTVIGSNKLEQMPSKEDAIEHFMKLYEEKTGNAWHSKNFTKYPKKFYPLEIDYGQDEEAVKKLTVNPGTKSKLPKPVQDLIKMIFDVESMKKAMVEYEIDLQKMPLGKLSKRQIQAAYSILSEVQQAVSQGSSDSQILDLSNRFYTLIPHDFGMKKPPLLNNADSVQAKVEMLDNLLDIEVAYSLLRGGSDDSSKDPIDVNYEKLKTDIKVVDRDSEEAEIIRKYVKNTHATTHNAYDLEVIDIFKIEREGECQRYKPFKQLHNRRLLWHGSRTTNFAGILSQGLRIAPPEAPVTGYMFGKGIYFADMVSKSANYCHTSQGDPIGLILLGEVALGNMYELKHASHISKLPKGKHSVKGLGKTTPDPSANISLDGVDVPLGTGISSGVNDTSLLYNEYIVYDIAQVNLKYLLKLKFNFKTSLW
Voltage-gated inwardly rectifying potassium channel KCNH2, sequence (Q12809 whole entry): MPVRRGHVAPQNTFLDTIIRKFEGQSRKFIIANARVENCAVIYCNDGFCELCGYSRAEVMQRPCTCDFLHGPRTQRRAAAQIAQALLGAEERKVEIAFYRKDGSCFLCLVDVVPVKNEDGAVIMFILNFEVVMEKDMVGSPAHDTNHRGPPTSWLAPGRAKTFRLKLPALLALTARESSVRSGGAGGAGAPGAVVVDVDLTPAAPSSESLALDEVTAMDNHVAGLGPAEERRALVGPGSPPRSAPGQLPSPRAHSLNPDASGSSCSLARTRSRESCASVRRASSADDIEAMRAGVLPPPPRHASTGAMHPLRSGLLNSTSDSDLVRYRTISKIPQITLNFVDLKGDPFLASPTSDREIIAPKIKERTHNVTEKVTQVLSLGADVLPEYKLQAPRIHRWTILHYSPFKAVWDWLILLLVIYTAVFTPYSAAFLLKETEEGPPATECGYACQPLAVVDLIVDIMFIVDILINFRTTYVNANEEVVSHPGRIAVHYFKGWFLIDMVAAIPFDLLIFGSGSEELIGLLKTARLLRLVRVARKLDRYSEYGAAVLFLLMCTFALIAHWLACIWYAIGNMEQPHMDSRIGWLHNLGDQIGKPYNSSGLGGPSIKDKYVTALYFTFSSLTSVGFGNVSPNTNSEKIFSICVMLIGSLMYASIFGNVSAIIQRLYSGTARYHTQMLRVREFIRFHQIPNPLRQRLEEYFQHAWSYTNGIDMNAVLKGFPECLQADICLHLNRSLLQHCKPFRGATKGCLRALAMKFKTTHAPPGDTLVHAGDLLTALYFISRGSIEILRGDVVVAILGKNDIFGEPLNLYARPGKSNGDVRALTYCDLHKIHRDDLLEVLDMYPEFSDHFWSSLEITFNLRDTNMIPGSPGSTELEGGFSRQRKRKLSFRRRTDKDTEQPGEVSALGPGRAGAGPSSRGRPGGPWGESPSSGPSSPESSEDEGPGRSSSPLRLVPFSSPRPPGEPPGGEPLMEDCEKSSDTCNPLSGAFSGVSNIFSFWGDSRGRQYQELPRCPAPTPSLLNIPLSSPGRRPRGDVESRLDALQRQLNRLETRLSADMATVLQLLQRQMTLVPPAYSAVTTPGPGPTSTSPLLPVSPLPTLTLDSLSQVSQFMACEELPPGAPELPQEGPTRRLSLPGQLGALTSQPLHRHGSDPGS

In series [1], `C[N+]1(C)CCc2cc(O)c(O)cc2[C@H]1Cc1ccc(O)c(O)c1` returned an IC50 of 1600 nM.
`O=C(CSc1nc2sc3c(c2c(=O)[nH]1)CCC3)N(CCO)CCO` gave an IC50 in series [2] of 560 nM.
`O=C1CCc2cc(-c3ccccc3F)ccc2C2(CCCCC2)N1` had an IC50 in [3] of 19 nM.
As for `CC1=C(NN)SC(NNS(=O)(=O)c2ccc3[nH]c(=O)c(=O)[nH]c3c2)N1C(=O)c1ccccc1` (configuration not stated), in [4], the IC50 is 2.31 nM.
The same measure, in the same setting: the figure for `CC(=O)C1=C(C)N(C(=O)c2ccccc2)C(NNS(=O)(=O)c2ccc3[nH]c(=O)c(=O)[nH]c3c2)S1` (configuration not stated) is 8.25 nM.
Compound `O=C(NN1CCCC1)c1cc(Cc2n[nH]c(=O)c3cccnc23)ccc1F` returned an IC50 in series [5] of 36.7 nM.
In turn, `C[N+]12CCc3cc(O)c(O)cc3C1Cc1cc3c(cc12)OCO3` (configuration not stated) came in with a half-inhibitory concentration (IC50) in [1] of 960 nM.
For the compound `Cc1cc(O)nn1S(=O)(=O)c1ccc2[nH]c(=O)c(=O)[nH]c2c1`, the IC50 in series [4] is 8.73 nM.
The compound `CCN(c1ccccc1)S(=O)(=O)c1ccc(NC(=O)C2CC(=O)c3cc(C)c(C)cc3O2)cc1` (configuration not stated) gave an IC50 in series [2] of 63000 nM.
As for `CC1=CSC(NNS(=O)(=O)c2ccc3[nH]c(=O)c(=O)[nH]c3c2)N1C(=O)c1ccccc1` (configuration not stated), the midpoint of inhibition in series [4], the IC50, lay at 6.35 nM.
In turn, `Oc1ccc(C2CNCc3c(O)cccc32)cc1O` (racemic) registered a concentration for half-maximal inhibition (IC50) in [1] of 240 nM. In other words, the sub-micromolar range.
As to `NC(=O)c1cccc2cn(-c3ccc([C@@H]4CCCNC4)cc3)nc12` [NIRAPARIB], the pKa in series [6] was 10.1; in series [7], 14. For the same compound, in [8], the logP worked out at 2.47. Also, in series [9], the logD was -0.11. In addition, the solubility in series [10] was 700 µg/mL (≈ 2180 µM). The compound further came in with a 50% inhibitory concentration (IC50) in [11] of 10000 nM.
Turning to `O=C(c1cc(Cc2n[nH]c(=O)c3ccccc23)ccc1F)N1CCN(C(=O)C2CC2)CC1` [OLAPARIB], the pKa in [6] is 0.9; in series [7], 9.96. In addition, the logP in series [8] was 1.96. In [9], this compound yielded a logD of 1.96.
In the case of `CNCc1ccc(-c2[nH]c3cc(F)cc4c3c2CCNC4=O)cc1` [RUCAPARIB], the pKa in [6] was 9.32; in series [7], 13.2. The compound also came in with a logP in series [8] of 2.45. For the same compound, the logD in series [9] turned out to be 0.55. In [10], this compound showed a solubility of 1000 µg/mL (≈ 3090 µM). The compound also came in with a half-inhibitory concentration (IC50) in series [11] of 23000 nM.
Regarding `Cn1ncnc1[C@H]1c2n[nH]c(=O)c3cc(F)cc(c23)N[C@@H]1c1ccc(F)cc1` [TALAZOPARIB], the pKa in series [6] stood at 1.66; in series [7] it was 9.48. For the same compound, in [8], the lipophilicity (logP) was 2.11. Moreover, the pH-dependent lipophilicity (logD) in [9] was found to be 2.11. The compound also registered a solubility in series [10] of 17 µg/mL (≈ 44.7 µM).

In general, IC50 refers to the concentration needed to halve the response being measured. As a reminder, the pKa is the negative logarithm of the acid dissociation constant. Lower therefore signals a group that gives up its proton readily. The logP is a log measure of how a compound divides between an organic and an aqueous phase. A higher logP goes with higher lipophilicity. A word on the logD: it is the decadic logarithm of the distribution of all forms, ionised or not, between an organic phase and buffer at a given pH. The low end stands for a more hydrophilic compound, the high end for a more lipophilic compound. By solubility is commonly meant how much of the substance goes into solution per volume. Read a high solubility as much dissolved substance.
